For orientation: logP means a log measure of how a compound divides between an organic and an aqueous phase. The low end stands for lower lipophilicity, the high end for higher lipophilicity. Compound `CCN1CCc2nc(N)oc2CC1` yielded a logP of 0.05.

For the compound `CC(C)(C)C(COc1ccc(Cl)cc1)OC(=S)n1ccnc1` (centres undefined), the log partition coefficient (logP) is 4.96.

In turn, `CCC(O)C(CC(C)N(C)C)(c1ccccc1)c1ccccc1` (centres undefined) yielded a logP of 4.27.

As for `COC(=O)NC1=NCC(c2ccc(C=O)cc2)N1C` (centres undefined), the logP was 0.74.

Consider `NS(=O)(=O)c1ccc(S(=O)(=O)CCCO)c([N+](=O)[O-])c1`, for which the logP is -0.05.

`OCCN(CCO)Cc1cccc(COc2ccccc2)c1` displayed a logP of 2.33.

`CCOC(=O)C1=C(C)NC(C)=C(C(=O)OCC)C1c1ccccc1/C=C/C(=O)OC(C)(C)C` displayed a logP of 5.2.

Compound `Nc1ccc(Cl)cc1Cl` yielded a logP of 2.78.

Turning to `Cc1cccc(C(N)=O)c1O`, the logP came to 2.12.

`CNc1nc(C)c(C(=O)CCN2CCCC2)s1` returned a logP of 1.86.

`CCCCC(=O)OCC1OC(n2cc(F)c(=O)[nH]c2=O)CC1OC(=O)CCCC` (centres undefined) gave a logP of 2.72.

On to `Nc1ccc(C(=O)O)cc1F`, for which the logP was found to be 1.41.

Compound `N=C(NCC#CCC(NC(=O)C(Cc1ccc2ccccc2c1)Cc1cccc2ccccc12)C(=O)NC(CC1CCCCC1)C(O)CC(=O)NCCN1CCOCC1)N[N+](=O)[O-]` (centres undefined) displayed a logP of 4.73.

Compound `Nc1cc(Cl)ccc1Cl` returned a lipophilicity (logP) of 2.75.

As for `CC(C)(C)C(COc1ccc(-c2ccccc2)cc1)OC(=S)n1ccnc1` (centres undefined), the logP was found to be 6.06.

`O=c1[nH]cc(F)c(=O)n1Oc1ccccc1` showed a logP of 0.8.

Consider `Nc1ccc(C(F)(F)F)cc1`, for which the logP is 1.95.

`COC(=O)NC1=NCC(c2cccc(Br)c2)N1` (centres undefined) returned a logP of 2.09.

In turn, `CN1C(=O)C(C)(C2=CCCCC2)C(=O)N=C1O` (centres undefined) had a logP of 1.98.

`Nc1cccc(Cl)c1Cl` registered a logP of 2.82.

Turning to `Nc1cccc(S(=O)(=O)[O-])c1.[Na+]`, the log partition coefficient (logP) was -3.4.

In turn, `CN(Cc1cccc(Br)c1)N=O` yielded a logP of 1.65.

Consider `Nc1c(Cl)c(Cl)cc(Cl)c1Cl`, for which the logP is 4.1.

As for `CC(C)(C)C(COc1ccc(-c2ccccc2)cc1)OC(=O)n1ccnc1` (centres undefined), the logP came out at 4.56.

`CSc1ccc(OCC(OC(=O)n2ccnc2)C(C)(C)C)cc1` (centres undefined): the logP came out at 4.03.

`CCC(CC)(C(=O)NC(N)=O)C(=O)OCC(=O)OC` showed a logP of 0.99.

Turning to `CC(C)(C)C(COc1ccc(Br)cc1)OC(=O)n1ccnc1` (centres undefined), the logP stood at 4.37.

`CC(CCC(=O)NCc1ccccc1)C1CCC2C3C(O)CC4CC(O)CCC4(C)C3CC(O)C12C` (centres undefined): the logP is 3.54.

Take `CC(C(O)c1ccccc1)N(C)C` (centres undefined): the logP came to 1.7.

In turn, `CNC12CCCCC1COc1ccccc12` (centres undefined) returned a logP of 3.31.

`CCOC(=O)NC1=NCC(c2cccc(F)c2)N1C` (centres undefined) gave a logP of 1.84.

Compound `O=c1c2c(nc3ccccn13)CCC2` came in with a logP of 1.19.

In turn, `NS(=O)(=O)c1cc2c(cc1C(F)(F)F)NC=NS2(=O)=O` registered a log partition coefficient (logP) of 0.32.

On to `NC(=O)NCCCCCCn1nc(-c2ccccc2)ccc1=O`, for which the logP was found to be 1.82.

Regarding `Cc1cc(O)c(N(C)C)nn1`, the logP worked out at 0.24.

The compound `NS(=O)(=O)c1cc2c(cc1Br)NC=NS2(=O)=O` showed a logP of 0.

Turning to `O=[N+]([O-])c1cccc(S(=O)(=O)[O-])c1.[Na+]`, the logP was -2.61.

Turning to `CCN1C(=O)NC(Cc2ccccc2)C1=O` (centres undefined), the logP was determined as 1.61.

`Cc1c(O)c(=O)ccn1C(C)C` yielded a logP of 0.05.

The compound `Nc1ccc(S(=O)(=O)c2c(O)cc(O)cc2O)cc1` yielded a logP of 1.53.

In turn, `CCOP(=O)(O)Cc1ccc(Cl)cc1` gave a logP of 1.6.

Take `Cn1nnnc1SCC1=C(C(=O)O)N2C(=O)[C@@H](NC(=O)[C@H](O)c3ccccc3)[C@H]2SC1`: the logP came to 0.5.

The compound `Cc1ccc(Cn2cc(F)c(=O)[nH]c2=O)cc1` displayed a logP of 1.5.

With `CNC12CCCCC1CC(O)c1ccccc12` (centres undefined), the logP came to 1.84.

Compound `C=CC(=O)OCCOCCOCCOCCOC(=O)C=C` came in with a logP of 1.26.

`O=C(O)CCCCCOc1cccc2ccccc12` yielded a logP of 4.5.

Compound `CCN(CC)CCC(=O)c1sc(N)nc1C` returned a logP of 1.76.

`O=P(OCC(Br)CBr)(OCC(Br)CBr)OCC(Br)CBr` (centres undefined) had a logP of 4.29.

The compound `CC(=O)c1ccc2c(c1)N(CCCN1CCN(CCO)CC1)c1ccccc1S2` gave a logP of 2.62.

Compound `CNC(=O)NCCCn1nc(-c2ccccc2)ccc1=O` registered a logP of 1.16.

In turn, `COC(=O)C1CC2C3CCC4=CC(=O)C=CC4(C)C3C(O)CC2(C)C1C(=O)CO` (centres undefined) displayed a logP of 1.7.

The compound `CCOC(=O)Cn1cnc(I)c1[N+](=O)[O-]` returned a logP of 0.93.

`CCC(C(=O)OC(C)c1ccccc1)C(CO)Cc1cncn1C` (centres undefined) came in with a logP of 2.23.

Consider `O=C1CNC(=O)N1Cc1ccccc1`, for which the logP was 0.82.

In the case of `CCOP(=O)(O)Cc1ccc(F)cc1`, the logP turned out to be 1.25.

`CC(C)(C)C(COc1ccc(F)cc1)OC(=O)n1ccnc1` (centres undefined) displayed a logP of 3.68.

Compound `CS(=O)(=O)OCCC[Se]CCCOS(C)(=O)=O` showed a logP of 0.38.

`COC(=O)c1cc(=O)[nH]c(=O)[nH]1` gave a logP of 0.63.

Regarding `CC=COCC(O)Cn1ccnc1[N+](=O)[O-]` (centres undefined), the logP turned out to be 0.28.

As to `CC(=O)n1c(=O)[nH]cc(F)c1=O`, the logP was -0.34.

Compound `CNC(=S)NCC#CCC(NC(=O)C(Cc1ccc2ccccc2c1)Cc1cccc2ccccc12)C(=O)NC(CC1CCCCC1)C(O)CC(=O)NCCN1CCOCC1` (centres undefined) gave a logP of 5.46.

Compound `O=C(O)c1cc([N+](=O)[O-])cc([N+](=O)[O-])c1O` yielded a logP of 1.71.

Compound `CCOCCOCCOP(=S)(N1CC1)N1CC1` showed a logP of 0.38.

`Cn1c([N+](=O)[O-])cnc1C1CC1` gave a log partition coefficient (logP) of 1.

`CCc1c(O)c(=O)ccn1CCOC`: the log partition coefficient (logP) came out at 0.04.

In turn, `CC(=O)O.CCCCCCCCCCCCNC(=N)N` displayed a logP of 1.15.

`O=C1c2ccccc2C(=O)C1c1cccc(Cl)c1` gave a logP of 3.61.

In turn, `CCCC(=O)OCn1cc2c(=O)[nH]cnc2n1` showed a logP of 0.33.

Regarding `Fc1ccccc1C1=NCC(=S)N(CC(F)(F)F)c2ccc(Cl)cc21`, the log partition coefficient (logP) was determined as 4.03.

`CCC(C)(C)c1ccc(CC(=O)O)cc1` registered a logP of 3.48.

The compound `Oc1ccc(C(O)(Cn2ccnc2)c2ccc(-c3ccncc3)cc2)cc1` (centres undefined) gave a logP of 2.49.

With `Cc1c(O)c(=O)ccn1CCCCO`, the logP is -0.74.

On to `CCCCN(C)C(=O)c1cccc(Oc2ccccc2)c1`, for which the logP came out at 3.89.

In turn, `CCn1cc(C(=O)O)c(=O)c2cc(F)c(N3CCN(C)CC3)c(F)c21` returned a logP of 0.3.

`CN(C)CC/C=C1\c2ccccc2COc2ccccc21` returned a logP of 4.29.

In turn, `COc1ccccc1/C=C/C(=O)O` yielded a logP of 2.54.

On to `CC(=O)NC(CO)C(N)=O` (centres undefined), for which the logP is -1.87.

With `COCCn1ccc(=O)c(O)c1C`, the logP was -0.41.

For the compound `COc1cccc2c1C(=O)c1c(O)c3c(c(O)c1C2=O)CC(O)(C(C)=O)CC3OC1CC(N(CC#N)CC(=O)O)C(O)C(C)O1` (centres undefined), the lipophilicity (logP) worked out at 0.03.

The compound `CCc1ccc(OCC(OC(=S)n2ccnc2)C(C)(C)C)cc1` (centres undefined) had a logP of 5.09.

Turning to `CCc1nc2cccc(C)n2c(=O)c1C`, the logP was found to be 1.87.

In turn, `CC(C)(C)C(COc1ccc(I)cc1)OC(=O)n1ccnc1` (centres undefined) registered a logP of 4.3.

On to `CCCCC(CC)C(=O)N1c2ccc(C)cc2C2CN(C)CCC21` (centres undefined), for which the logP came to 4.14.

Regarding `CC(C)C1NC(=O)NC1=O` (centres undefined), the logP is -0.36.

Take `Nc1cccc(C(=O)O)c1`: the logP is 0.65.

Compound `COC(=O)c1c(C)[nH]c(-c2ccc(Cl)cn2)c1C(=O)OC` gave a logP of 2.7.

For the compound `CCC(=O)OCC1OC(n2cc(I)c(=O)[nH]c2=O)CC1O` (centres undefined), the lipophilicity (logP) turned out to be 0.68.

`CCCn1ccc(=O)c(O)c1CC` had a logP of 0.7.

In turn, `OCCN(CCO)CCCc1ccc(CSc2ccccc2)cc1` returned a logP of 3.31.

In turn, `Cc1ccc(C(=O)CCN2CCCCC2)cc1` showed a logP of 3.55.

Regarding `CCCNC(=O)c1ccco1`, the logP was 1.1.

For `Cc1ccn2c(=O)ccnc2c1`, the logP was 0.56.

With `CCOC(=O)NC1=NCC(c2ccc(CO)cc2)N1C` (centres undefined), the logP amounted to 0.84.

With `CC1c2cccc(O)c2C(=O)C2=C(O)C3(O)C(=O)C(C(N)=O)=C(O)C(N(C)C)C3C(O)C21` (centres undefined), the logP was -0.02.

In the case of `CN1C(O)C(O)C(O)C(O)C1CO` (centres undefined), the logP is -2.4.

`Nc1ccc(C(=O)O)c(N)c1`: the logP is -0.31.

For `CCCc1c2oc(C(=O)O)cc(=O)c2cc2c(=O)cc(C(=O)O)n(CC)c12`, the logP came to 2.22.

Turning to `CNC(=O)Oc1cc(C)c(N(C)C)c(C)c1`, the logP is 2.56.

With `CNc1nc(C)c(C(=O)CCN2CCOCC2)s1`, the logP worked out at 0.95.

For `CC1=NS(=O)(=O)c2cc(S(N)(=O)=O)c(Cl)cc2N1`, the logP turned out to be 0.03.

In turn, `Cc1ccc2nccc(=O)n2c1` showed a logP of 0.61.

`COc1cccc(C2C(=O)c3ccccc3C2=O)c1` had a logP of 2.88.

In turn, `CC1CCCc2ncc(C(N)=O)c(=O)n21` (centres undefined) came in with a logP of 0.04.

As for `O=c1c2ccccc2nc2n1CCCC2`, the logP came to 1.52.

Compound `CCCC(=NOCC)C1C(=O)CC(C)(C2CC2)OC1=O` (centres undefined) showed a logP of 3.28.

`CCCCCCn1ccc(=O)c(O)c1CC` gave a logP of 2.28.

With `NC(=O)Nc1ccc(C(=O)O)cc1`, the logP was determined as 0.73.

Regarding `CC(=O)CC(c1ccc([N+](=O)[O-])cc1)c1c(O)c2ccccc2oc1=O` (centres undefined), the logP worked out at 1.98.

The compound `Cc1ccc(C)c(C(=O)NS(=O)(=O)c2ccc(N)cc2)c1` displayed a logP of 2.19.

Compound `O=C(Cc1cccnc1)NN1CC=CCC1` gave a logP of 0.05.

`CCOCCCn1ccc(=O)c(O)c1CC` registered a logP of 0.72.

Compound `C=CC12COC(=O)C(=C)C1C1OC(=O)C(=C)C1C(OC(=O)C(=C)C)C2` (centres undefined) registered a logP of 1.56.

In turn, `CCOc1cccc(-c2nnc(C)n(NC)c2=O)c1` displayed a logP of 1.91.

With `N#Cc1cccnc1`, the logP amounted to 0.36.

Regarding `CCOC(=O)CN(C(=O)CCl)c1ccccc1OC(C)C`, the logP is 2.75.

In the case of `Nc1ccc(Cl)c(Cl)c1Cl`, the logP is 3.33.

For `COc1ccc(Cn2cc(F)c(=O)[nH]c2=O)cc1`, the logP worked out at 1.04.

For the compound `CC(C)c1cccc(C2C(=O)c3ccccc3C2=O)c1`, the logP was found to be 4.43.

As to `NS(=O)(=O)c1ccc(Cl)c([N+](=O)[O-])c1`, the logP was 0.66.

(Values after the OPERA property sets (Mansouri et al. 2018).)
